What was measured:
DIO mice = assay: Compound 40 with exercise on metabolic profile in DIO mice; exercise endurance (tread mill) test; type: in vivo, male C57BL/6J mice
Method: Exercise endurance test or tread mill test (TMT): Exercise endurance test was accomplished on a motor treadmill at a low to moderate intensity of 5-20 cm/sec as maximal running speed with an intensity of 0.2 mA shock and one degree of inclination. The animals were subjected for TMT till exhaustion and different observations like distance traveled (cm), time spent on shock zone (sec), number of shocks, total time (min) were measured for all the mice in different groups.
Six week old male C57BL/6J mice were selected, acclimatized for a period of 1 week, Animals were assigned to either chow (10% kcal from fat) or high fat diet (HFD) (D12492; 60% kcal from fat), Research Diets, Inc., New Jersey, USA. After 11 weeks of the diet intervention, the HFD fed animals were assigned to specific treatment groups based upon body weight, glucose AUC during OGTT, fasting and fed blood glucose and fasting TG. The lean control mice (n=10) were fed with normal chow diet while the treatment group (n=10) and HFD Control (n=10), with and without exercise training, with high fat diet throughout the experimental period. Treatment group received Compound 40 with and without exercise training, at a dose of 10 mg/kg b.wt, once daily, po as suspension in 1% MC (methyl cellulose) as vehicle. Lean control and HFD controls animals were administered with vehicle. Exercise training was accomplished on a motor treadmill at a low to moderate intensity of 5-20 cm/sec as maximal running speed with an intensity of 0.2 mA shock and one degree of inclination. The animals were adapted to this procedure 5 days a week and different observations like distance traveled (cm), time spent on shock zone (sec), number of shocks, total time (min) will be measured for all the mice in different groups. Weekly body weight & daily feed consumption was recorded. The blood collected from tail vein was subjected for estimation of glucose and TG. OGTT was performed in 6 h fasted mice with 2 g/kg, of oral glucose challenge after 4 and 8 weeks of treatment. Then animals were euthanized and necropsied, the liver was excised immediately, weighed and taken to estimate liver triglyceride (TG). Different adipose depots were separated and weighed.

[1] = tested on: mouse neuronal cells (N2A cells); assay: Cholesterol-treated neuronal cells (N2A), in vitro data for Alzheimer's disease; type: cell-based; conditions: 320 uM cholesterol
Method: In order to study the impact of Compound 40 on Alzheimer's Disease, cultured mouse neuronal cells (N2A cells) were treated with 320 uM cholesterol alone or with test molecule for 24 h. Cholesterol was removed and treatment is continued for 24 h. Cholesterol content in the cells was measured by biochemical methods, normalized to total protein. For gene expression studies, cells were treated with 320 uM cholesterol alone or with test molecule for 48 h. RNA was made and later converted to cDNA and the gene expression was measured. […] These cellular events lead to reduced plaque formation and improvement in the health of neuronal cells.

db/db mice = assay: Effect of RXR agonist on db/db mice; type: in vivo; conditions: 2.5, 5, 10 and 15 mg/kg, BID, po
Method: The male db/db and lean mice were procured from Jackson Laboratory, US laboratories, acclimatized for a week, were fed a standard laboratory diet. The lean control and the db/db mice were 8 weeks old at the start of the study and were randomized to either vehicle or drug (Compound 40, 2.5, 5, 10 and 15 mg/kg, BID, po) treatment groups by body weight, fed glucose and glucose AUC during an oral glucose tolerance test. The treatment was continued for 8 weeks. Body weight, fasting and fed glucose and fast triglycerides (tail snip) were monitored weekly. At the end of week 8 of the treatment, glucose and insulin HbAlc levels were followed at different time intervals. Blood samples collected from tail nipping method were subjected at the end of week 7 of treatment period measured for HbAlc levels by DCA vantage (SIEMENS).
Assessment of 24 h glucose profile: Fed state blood samples were collected by tail nipping method and measured for glucose levels at every 2 h time intervals up to 8 h and then followed by 4 h intervals at the end of week 7 of treatment.

MIA PaCa-2 cells = assay: Cell death (DNA fragmentation) in MIA PaCa-2 cells; type: cell-based
Method: Caspase-3 activity was measured using its ability to cleave its substrate (Ac-DEVD-R110). Increased Caspase-3 activity would lead to higher release of fluorescent R110 which was measured at 485 nm excitation and 530 nm emission. Activity of caspase-3 (as nano-moles of R110 released) was normalized to total cellular protein. […] Cell death was measured by increased levels of DNA fragments as per manufacturer's protocol (Roche) and was normalized to total cellular DNA. Data are represented as % of control.

[2] = tested on: HL-60 promyelocytic leukemia cell line; assay: HL-60 differentiation (NBT reduction); type: cell-based; conditions: 72 h culture
Method: Progression of promyelocytic leukemia can be abrogated by their differentiation. […] In order to estimate the differentiating ability of compound-40, HL-60 promyelocytic leukemia cell line was used as an in vitro model of the disease. HL-60 cells were cultured for 72 h as either control or under treatment as mentioned. After 72 h of culture, cells were exposed to nitro blue tetrazolium (NBT) solution containing phorbol myristate acetate (PMA) for 1 h at 37° C. Differentiated cells have increased oxidative burst potential which reduces NBT. Levels of reduced NBT were measured at 540 nm absorption.

[3] = tested on: MCF7 breast cancer cell line; assay: MCF7 breast cancer cell line: growth, BrdU incorporation, ROS, DNA fragmentation; type: cell-based
astrocytes = assay: Astrocytes treated with PMA and LPS: ROS levels and inflammation markers; type: cell-based; conditions: 48 h
Method: Furthermore, cultured astrocytes were treated with phorbol-12-myristate-13-acetate (PMA) and Lipopolysaccharides (LPS) alone or with test molecule for 48 h to measure ROS levels. To evaluate the effect on inflammation markers, astrocytes were treated with PMA and test molecule for 48 h.

## CC1(C)CCC(C)(C)c2sc(N(CC3CC3)c3ccc(C(=O)O)cn3)nc21 [Compound 40, 6-[(Cyclopropylmethyl) (4,4,7,7-tetramethyl-4,5,6,7-tetrahydro-1,3-benzothiazol-2-yl)amino]pyridine-3-carboxylic acid]
DIO mice; 10 mg/kg b.wt, once daily, po
  Body weight: improvement was also observed
  OGTT levels: significant improvement
  fasting TG levels: improvement was also observed
  fasting glucose: significant improvement
DIO mice; DIO mice, tread mill test
  muscle endurance: significantly improves muscle endurance
[1]
  apoptosis (Caspase activity): decreased apoptosis
  cholesterol accumulation (cholesterol content in the cells): reduced cholesterol accumulation
  oxidative stress (ROS levels): reduced oxidative stress
[1]; 48 h
  cholesterol efflux (ABCA1 and ABCG1 expression): increased the cholesterol efflux
db/db mice; 8 weeks
  post-prandial blood glucose levels: significantly reduced post-prandial blood glucose levels
db/db mice; end of week 7
  HbAlc levels: steep and dose dependent reduction
  glucose excursion during the prandial phase (24 h glucose profile): significantly reduced glucose excursion
MIA PaCa-2 cells
  cell death (DNA fragmentation): increased cell death
[2]; NBT reduction at 540 nm
  HL-60 cells differentiation: significantly increased
[2]; together with ATRA
  HL-60 differentiation in combination with ATRA: additive effect with ATRA
[3]; MCF7
  BrdU incorporation: significantly reduced
  apoptosis (DNA fragmentation): increased levels of apoptosis
  cellular stress (ROS levels): significant increase in cellular stress
[3]; MCF7, 3 uM
  cell growth: reduced cell growth
astrocytes; PMA and LPS
  oxidative stress (ROS levels): reduce both oxidative stress
astrocytes; PMA
  inflammation (IL6 secretion and expression, expression of IL1b, COX2 and MCP1): reduce inflammation
